In patent publication US10721967B2, “Vaporizing devices and methods for delivering a compound using the same” (Altria Client Services LLC, priority 2016, dated 2020):
Read-outs that look alike come from different tables or passages of the source.

How the values were obtained:
[1] = Single-ascending dose pharmacokinetic study: plasma THC after a 3 second inhalation from the vaporizer device; format: in vivo, human; details: for AUC(0-inf) / Tmax / Cmax: human, plasma, inhaled, single inhalation, mean ± SD; for Cmax: read-out: Δ^9-THC Cmax
Protocol: A study was conducted to investigate the pharmacokinetics, efficacy, safety, and ease of use of a vaporizer device of the present technology for treating disorders in humans. Volunteers were recruited for participation in the study and met the following inclusion criteria: (a) age >30 and <70 years; (b) no known medical problems; and (c) if applicable, negative urine pregnancy test (β human […] gonadotropin pregnancy test). Exclusion criteria were the presence of (a) significant cardiac or pulmonary disease, (b) history of a psychotic or anxiety disorder, (c) pregnancy, pregnancy attempt or breastfeeding, (d) presence of a neuropathic or non-neuropathic pain disorder, (e) low systolic blood pressure, ([…]) (f) diabetes (g) first degree family history of psychotic or anxiety disorder, (h) history of drug addiction, (i) history of drug misuse, (j) concurrent use the following drugs: rifampicin, rifabutin, carbamazepine, or phenobarbital, primidone, (k) using the following plants: Hypericum perforatum, troglitazone, (l) alcohol consumption up to 12 hours prior to the study, (m) abnormal parameters such as heart rate above 100 BPM, blood pressure below 90 mm Hg (systolic), saturation below 91 percent, (n) recreational Cannabis use up to 72 hours before the study, (o) any chronic use of drugs, and (q) age less than 30 or more than 70.
The participants were divided into four dose related groups each group included 3 volunteers. After 3 successful training inhalations, each participant inhaled 3 seconds of a single dose. Dose groups were 10±0.1 mg, 15±0.1 mg, 20±0.1 mg, 25±0.1 mg of THC.
Blood samples were drawn immediately before and at 2, 3, 4, 10, 30 minutes after inhalation for monitoring of plasma levels of THC and its active metabolite Δ^9 Carboxy-THC. The blood was collected in 13×75 mm purple-top Vacutainer tubes containing EDTA. Samples were kept on ice and centrifuged within 30 minutes. Plasma samples were aliquoted into 3.6-mL polypropylene Nunc cryotubes (Thomas Scientific, NJ, USA), stored frozen at −20° C., and analyzed within 6 weeks. The cannabinoid analysis was performed at Pactox (Pacific Toxicology Laboratories) Labs by multidimensional gas chromatography mass spectrometry method.
The study device was as described above in connection with the figures and designed to vaporize up to 80 doses of processed cannabis fibs, resulting in the pulmonary delivery of compounds. The inhaler consisted of a multi-dose cartridge, indication light, and power switch. The cartridge was preloaded with multiple pre-weighed 10.0±0.1 mg, 15.0±0.1 mg, 20.0±0.1 mg, and 25.0±0.1 mg doses of processed cannabis flos. The vaporization process was segmental and triggered by the volunteer pressing the operating button. The segmental evaporation process is aimed at turning THCA into THC^1 and is done by: (1) stage I—heating the material to 100° C. for 9 seconds; (2) stage II—heating the material to 150° C. for 9 seconds; (3) stage III—heating the material to 190° C. to 200° C. (evaporation temperature) for the 3 seconds of inhalation. The transition to the next dose/inhalation is performed by using a mechanical rotation wheel. The device engages automatic thermal control that ensures a complete, high-efficiency delivery of carmabinoid vapors to the lungs. The device allowed for “single inhalation” dose resolution, instantaneous administration, and required no preprocessing or any subject intervention other than the inhalation itself.
The cannabis flowers used in the study were of the Alaska strain provided by “Tikun Olam.” This strain is a hybrid of 70% sativa and 30% indica strains. This strain consists of 20-22% THC and 0% CBD. The processed cannabis flowers used in this study were tested for THC by modified gas-chromatography method without derivatization 1.8 resulting in Δ^9-THC content of 20.08%. The flowers were loaded into the inhaler so as to retain the natural cannabis compounds in. their raw form. […]

[2] = Short Blessed Test cognitive status evaluation; format: in vivo, human; details: for SET 0 min (Short Blessed Test score): 0 min (prior to inhalation); for SET 0 min (Short Blessed Test score) / SET 30 min (Short Blessed Test score) / SET 120 min (Short Blessed Test score): mean; for SET 30 min (Short Blessed Test score): 30 min after inhalation
Protocol: (§1) Blood pressure, pulse rate, and oxygen saturation were also recorded at baseline, 30, 60, 90, and 120 minutes post inhalation. A cognitive test was conducted using the Short Blessed Test prior to the experiment at 30, 60 minutes after inhalation and at the end of the experiment.
(§2) The primary outcome of the study was to characterize the inter-individual variability of Δ^9-THC during the absorption phase. The secondary outcome included (a) monitoring adverse effects, (b) blood pressure, and heart rate; and (c) monitoring the response of single-ascending dose with the use of the study device. In addition, the influence of the use of the trial device on the cognitive status of the subject was assessed. A Short Blessed Test cognitive test^19 was used for the purpose of the trial.
The Short Blessed Test, a six-item test, was used as a diagnostic tool enabling the cognitive status evaluation of the volunteers. Each item was scored and total scores were calculated on the following cut off points: Normal or minimally impaired: 0-8, Moderately impaired: 9-19, Severely impaired: 20-33.

[3] = intravenous THC administration, cited from earlier work
[4] = Blood pressure, pulse rate and oxygen saturation after inhalation; format: in vivo, human; details: for DBP (diastolic blood pressure) / HR (heart rate) / SBP (systolic blood pressure) / SO2 (blood oxygen saturation): mean value
Protocol: as §1, §2

[5] = ascending doses 10-25 mg, inhalation

CCCCCc1cc(O)c2c(c1)OC(C)(C)[C@@H]1CCC(C)=C[C@@H]21 [THC, tetrahydrocannabinol]
change in time needed to reach maximum concentration with ascending doses [1, 5]: no significant change
change of AUC with ascending doses [1, 5]: same linear increase
change of maximum concentration with ascending doses [1, 5]: linear increase
AUC(0-inf) ([1]; 0.1 mg, Group IV, 25 ± 0.1 mg): 16.2 ng·h/mL
Tmax ([1]; 0.1 mg, Group IV, 25 ± 0.1 mg): 3 min
Cmax ([1]; 0.1 mg, Group IV, 25 ± 0.1 mg): 88.6 ± 14.8 ng/mL
AUC(0-inf) ([1]; Group I, 10 ± 0.1 mg): 7.36 ng·h/mL
Tmax ([1]; Group I, 10 ± 0.1 mg): 3.67 min
Cmax ([1]; Group I, 10 ± 0.1 mg): 35.4 ± 5.97 ng/mL
AUC(0-inf) ([1]; Group II, 15 ± 0.1 mg): 10.4 ng·h/mL
Tmax ([1]; Group II, 15 ± 0.1 mg): 3.33 min
Cmax ([1]; Group II, 15 ± 0.1 mg): 51.5 ± 13.8 ng/mL
AUC(0-inf) ([1]; Group III, 20 ± 0.1 mg): 11.6 ng·h/mL
Tmax ([1]; Group III, 20 ± 0.1 mg): 2.67 min
Cmax ([1]; Group III, 20 ± 0.1 mg): 72.4 ± 15.9 ng/mL
SET 0 min (Short Blessed Test score) ([2]; 10 mg dose group): 0.66 ± 0.94
SET 30 min (Short Blessed Test score) ([2]; 10 mg dose group): 2.33 ± 3.29
SET 120 min (Short Blessed Test score) ([2]; 10 mg dose group): 2.66 ± 0.47
SET 0 min (Short Blessed Test score) ([2]; 15 mg dose group): 0
SET 30 min (Short Blessed Test score) ([2]; 15 mg dose group): 1.33 ± 1.88
SET 120 min (Short Blessed Test score) ([2]; 15 mg dose group): 3 ± 0.81
SET 0 min (Short Blessed Test score) ([2]; 20 mg dose group): 2 ± 1.63
SET 30 min (Short Blessed Test score) ([2]; 20 mg dose group): 0.66 ± 0.94
SET 120 min (Short Blessed Test score) ([2]; 20 mg dose group): 0.66 ± 0.94
SET 0 min (Short Blessed Test score) ([2]; 25 mg dose group): 2 ± 2.82
SET 30 min (Short Blessed Test score) ([2]; 25 mg dose group): 0
SET 120 min (Short Blessed Test score) ([2]; 25 mg dose group): 0
cognitive impairment (Short Blessed Test) ([2]; all volunteers, 0-8 normal or minimally impaired): minimal cognitive impairment
Cmax of Δ^9-THC ([3]; Reference 1): 43.8 ng/mL
Cmax of Δ^9-THC ([3]; Reference 2): 32.8 ng/mL
Cmax of Δ^9-THC ([3]; Reference 3): 23.8 ng/mL
DBP (diastolic blood pressure) ([4]; 10 mg dose group): 69.46 ± 7.86 mmHg
HR (heart rate) ([4]; 10 mg dose group): 71.66 ± 10.14
SBP (systolic blood pressure) ([4]; 10 mg dose group): 113.4 ± 10.23 mmHg
SO2 (blood oxygen saturation) ([4]; 10 mg dose group): 99.93 ± 0.25%
DBP (diastolic blood pressure) ([4]; 15 mg dose group): 63.85 ± 9.78 mmHg
HR (heart rate) ([4]; 15 mg dose group): 79 ± 13.37
SBP (systolic blood pressure) ([4]; 15 mg dose group): 114.93 ± 6.88 mmHg
SO2 (blood oxygen saturation) ([4]; 15 mg dose group): 100%
DBP (diastolic blood pressure) ([4]; 20 mg dose group): 71.78 ± 14.95 mmHg
HR (heart rate) ([4]; 20 mg dose group): 68.35 ± 5.83
SBP (systolic blood pressure) ([4]; 20 mg dose group): 120.14 ± 28.03 mmHg
SO2 (blood oxygen saturation) ([4]; 20 mg dose group): 99.92 ± 0.26%
DBP (diastolic blood pressure) ([4]; 25 mg dose group): 80.57 ± 8.92 mmHg
HR (heart rate) ([4]; 25 mg dose group): 77.57 ± 17.74
SBP (systolic blood pressure) ([4]; 25 mg dose group): 130 ± 16.62 mmHg
SO2 (blood oxygen saturation) ([4]; 25 mg dose group): 99.42 ± 0.9%
change in blood pressure, heart rate, or blood oxygen saturation ([4]; during the time frame of the study, all dose groups): no significant change
